How the values were obtained:
HCoV-229E = assay type: cell-based
[1] = tested on: pseudovirus presenting the spike of MERS-CoV; assay: organism not typed; assay type: cell-based
SARS-CoV = assay type: cell-based
HCoV-OC43 = assay type: cell-based
MERS-CoV [2] = assay type: cell-based
MERS-CoV [3] = assay type: cell-based; remark: listed apart in the source
A549 cells [4] = assay type: cell-based; settings: 10 μM, 12 h
SARS-CoV-2 [5] = settings: hamster, in vivo
A549 cells [6] = assay type: cell-based; settings: 10 μM, 12 h; remark: listed apart in the source
SARS-CoV-2 [7] = assay type: cell-based

Structure (SMILES) | efficacy against HCoV-229E (HCoV-229E) | pseudovirus infection / luciferase signal [1] | potency against SARS-CoV (SARS-CoV) | efficacy against HCoV-OC43 (HCoV-OC43) | inhibition by time of addition (MERS-CoV [2]) | MERS-CoV infection assay, immunofluorescence (MERS-CoV [3]) | CH25H gene expression (A549 cells [4]) | SQLE expression (A549 cells [4]) | activity level or survival rate (SARS-CoV-2 [5]) | cytotoxic effects in the pseudovirus assay (Huh-7 cells) | EC50 ([1]; Huh-7, read-out: Pseudovirus (EC50, μM)) [µM] | total cellular cholesterol (A549 cells [6]) | inhibition of SARS-CoV-2 infection by viral RNA (SARS-CoV-2 [7])
CCCCc1oc2ccccc2c1C(=O)c1cc(I)c(OCCN(CC)CC)c(I)c1 [amiodarone] | showed efficacy | outstanding antiviral activity | strong potency | showed efficacy | strongly inhibited the viral infection when added at an early time point |  |  |  |  |  |  |  | 
CCN(CC)CCCC(C)Nc1ccnc2cc(Cl)ccc12 (centres unmarked) [chloroquine] |  |  |  |  | stage-selective activity | quenched in a concentration-dependent manner |  |  |  |  |  |  | 
Cc1cccc(C)c1OCC(=O)N[C@@H](Cc1ccccc1)[C@@H](O)C[C@H](Cc1ccccc1)NC(=O)[C@H](C(C)C)N1CCCNC1=O [lopinavir] |  |  |  |  | showed efficacy when added at a relatively later stage of infection | quenched in a concentration-dependent manner |  |  |  |  |  |  | 
O=C(c1ccc(OCCN2CCCCC2)cc1)c1c(-c2ccc(O)cc2)sc2cc(O)ccc12 [raloxifene] | effective |  | strong potency | effective | more potent when added at the earlier stages |  | do not show alteration | significantly enhanced | no significant changes | no significant cytotoxic effects | 0.2 | marginal elevation | strong potency
